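Briefly, cells in 96-well plates were exposed to five compound concentrations for 48 h, and endpoints were estimated by linear interpolation. TGI: concentration producing complete growth inhibition.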
Experiments:
Assay in all cases: NCI-60 cell line screen, 48 h
[1] = tested on: MDA-N
[2] = tested on: CAKI-1 renal
[3] = tested on: MOLT-4 leukemia
[4] = tested on: HOP-62 NSCLC
[5] = tested on: KM12 colon
[6] = tested on: ACHN renal
[7] = tested on: DU-145 prostate
[8] = tested on: LOX IMVI melanoma
[9] = tested on: OVCAR-5 ovarian
[10] = tested on: HS 578T breast
[11] = tested on: EKVX NSCLC
[12] = tested on: NCI-H226 lung
[13] = tested on: NCI-H460 lung
[14] = tested on: HT29 colon
[15] = tested on: U251 CNS
[16] = tested on: PC-3 prostate
[17] = tested on: T-47D breast
[18] = tested on: SW-620 colon
[19] = tested on: NCI-H23 lung
[20] = tested on: HL-60(TB) leukemia
[21] = tested on: SK-OV-3 ovarian
[22] = tested on: HOP-92 NSCLC
[23] = tested on: SK-MEL-5 melanoma
[24] = tested on: MALME-3M melanoma
[25] = tested on: SK-MEL-2 melanoma
[26] = tested on: SK-MEL-28 melanoma
[27] = tested on: HCC-2998 colon
[28] = tested on: MDA-MB-435
[29] = tested on: MDA-MB-231 breast
[30] = tested on: MCF7 breast
[31] = tested on: 786-0 renal
[32] = tested on: RPMI-8226 leukemia
[33] = tested on: OVCAR-3 ovarian
[34] = tested on: SNB-75 CNS
[35] = tested on: OVCAR-8 ovarian
[36] = tested on: HCT-15 colon
[37] = tested on: HCT-116 colon
[38] = tested on: IGROV1 ovarian
[39] = tested on: UO-31 renal
[40] = tested on: SF-268 CNS
[41] = tested on: K-562 leukemia
[42] = tested on: SF-295 CNS
[43] = tested on: BT-549 breast
[44] = tested on: SN12C renal
[45] = tested on: A498 renal
[46] = tested on: RXF 393 renal
[47] = tested on: M14 melanoma
[48] = tested on: CCRF-CEM leukemia
[49] = tested on: UACC-257 melanoma
[50] = tested on: OVCAR-4 ovarian
[51] = tested on: COLO 205 colon
[52] = tested on: SNB-19 CNS
[53] = tested on: NCI/ADR-RES ovarian
[54] = tested on: TK-10 renal
[55] = tested on: SF-539 CNS
[56] = tested on: UACC-62 melanoma
[57] = tested on: A549 NSCLC
[58] = tested on: NCI-H522 lung
[59] = tested on: SR leukemia

For `Cc1cc2oc(=N)c(C#N)c(C)c2cc1C`, the TGI [1] was over 100 µM, the TGI [2] was over 100 µM and the TGI [3] was 33.2 µM. For the same compound, the TGI [4] was over 100 µM, the TGI [5] was over 100 µM and the TGI [6] was over 100 µM. For the same compound, the TGI [7] was over 100 µM, the TGI [8] was over 100 µM and the TGI [9] was over 100 µM. The TGI [10] was over 100 µM, the TGI [11] was over 100 µM and the TGI [12] was over 100 µM. The TGI [13] was over 100 µM, the TGI [14] was over 100 µM and the TGI [15] was over 100 µM. The TGI [16] was over 100 µM, the TGI [17] was over 100 µM and the TGI [18] was over 100 µM. For the same compound, the TGI [19] was over 100 µM, the TGI [20] was over 100 µM and the TGI [21] was over 100 µM. It also gave a TGI [22] of over 100 µM, a TGI [23] of over 100 µM and a TGI [24] of over 100 µM. The TGI [25] was over 100 µM, the TGI [26] was over 100 µM and the TGI [27] was over 100 µM. For the same compound, the TGI [28] was over 100 µM, the TGI [29] was over 100 µM and the TGI [30] was over 100 µM. The TGI [31] was over 100 µM, the TGI [32] was over 100 µM and the TGI [33] was over 100 µM. It also gave a TGI [34] of 79.8 µM, a TGI [35] of over 100 µM and a TGI [36] of over 100 µM. It also gave a TGI [37] of over 100 µM, a TGI [38] of over 100 µM and a TGI [39] of over 100 µM. For the same compound, the TGI [40] was over 100 µM, the TGI [41] was over 100 µM and the TGI [42] was over 100 µM. It also gave a TGI [43] of over 100 µM, a TGI [44] of over 100 µM and a TGI [45] of over 100 µM. For the same compound, the TGI [46] was 87.3 µM, the TGI [47] was over 100 µM and the TGI [48] was over 100 µM. The TGI [49] was over 100 µM, the TGI [50] was over 100 µM and the TGI [51] was over 100 µM. It also gave a TGI [52] of over 100 µM, a TGI [53] of over 100 µM and a TGI [54] of over 100 µM. The TGI [55] was over 100 µM, the TGI [56] was over 100 µM and the TGI [57] was over 100 µM.

In the case of `CC(C)(C)OC(=O)[C@H]1CCC(=S)N1Cc1ccccc1`, the TGI [1] is reported as over 100 µM, the TGI [2] is reported as over 100 µM and the TGI [3] is reported as over 100 µM. For the same compound, the TGI [5] was over 100 µM, the TGI [6] was over 100 µM and the TGI [7] was over 100 µM. The TGI [58] was over 100 µM, the TGI [8] was over 100 µM and the TGI [9] was over 100 µM. The TGI [11] was over 100 µM, the TGI [12] was over 100 µM and the TGI [13] was over 100 µM. For the same compound, the TGI [15] was over 100 µM, the TGI [16] was over 100 µM and the TGI [18] was over 100 µM. For the same compound, the TGI [19] was over 100 µM, the TGI [20] was over 100 µM and the TGI [21] was over 100 µM. It also gave a TGI [22] of over 100 µM, a TGI [23] of over 100 µM and a TGI [24] of over 100 µM. For the same compound, the TGI [25] was over 100 µM, the TGI [26] was over 100 µM and the TGI [27] was over 100 µM. It also gave a TGI [28] of over 100 µM, a TGI [29] of over 100 µM and a TGI [59] of over 100 µM. It also gave a TGI [30] of over 100 µM, a TGI [31] of over 100 µM and a TGI [32] of over 100 µM. It also gave a TGI [33] of over 100 µM, a TGI [34] of over 100 µM and a TGI [35] of over 100 µM. For the same compound, the TGI [36] was over 100 µM, the TGI [37] was over 100 µM and the TGI [38] was over 100 µM. The TGI [39] was over 100 µM, the TGI [42] was over 100 µM and the TGI [44] was over 100 µM. For the same compound, the TGI [45] was over 100 µM, the TGI [46] was over 100 µM and the TGI [47] was over 100 µM. For the same compound, the TGI [48] was over 100 µM, the TGI [49] was over 100 µM and the TGI [50] was over 100 µM. The TGI [51] was over 100 µM, the TGI [52] was over 100 µM and the TGI [53] was over 100 µM. It also gave a TGI [54] of over 100 µM, a TGI [55] of over 100 µM and a TGI [56] of over 100 µM. The TGI [57] was over 100 µM.
